# Reference: PubChem BioAssay (NCI)
#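 Method: 48-hour compound exposure of cells in 96-well plates, five concentrations, linear interpolation of endpoints. GI50: concentration for 50% inhibition of growth. The concentration for full growth arrest is given as TGI.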
# How the values were obtained:
# Experiment in all cases: NCI-60 cell line screen, 48 h
# 786-0 renal = tested on: 786-0 renal
# BT-549 breast = tested on: BT-549 breast
# EKVX NSCLC = tested on: EKVX NSCLC
# HCC-2998 colon = tested on: HCC-2998 colon
# KM12 colon = tested on: KM12 colon
# NCI-H460 lung = tested on: NCI-H460 lung
# OVCAR-5 ovarian = tested on: OVCAR-5 ovarian
# SF-295 CNS = tested on: SF-295 CNS
# SN12C renal = tested on: SN12C renal
# UO-31 renal = tested on: UO-31 renal
SMILES,TGI (786-0 renal) [µM],TGI (BT-549 breast) [µM],TGI (EKVX NSCLC) [µM],TGI (HCC-2998 colon) [µM],TGI (KM12 colon) [µM],TGI (NCI-H460 lung) [µM],TGI (OVCAR-5 ovarian) [µM],TGI (SF-295 CNS) [µM],TGI (SN12C renal) [µM],TGI (UO-31 renal) [µM],GI50 (786-0 renal) [µM],GI50 (BT-549 breast) [µM],GI50 (EKVX NSCLC) [µM],GI50 (HCC-2998 colon) [µM],GI50 (KM12 colon) [µM],GI50 (NCI-H460 lung) [µM],GI50 (OVCAR-5 ovarian) [µM],GI50 (SF-295 CNS) [µM],GI50 (SN12C renal) [µM],GI50 (UO-31 renal) [µM]
O=S(=O)(O)c1cc(N=Nc2cc(S(=O)(=O)O)c3cccnc3c2O)ccc1/C=C/c1ccc(N=Nc2cc(S(=O)(=O)O)c3cccnc3c2O)cc1S(=O)(=O)O,> 100,> 100,> 100,> 100,> 100,> 100,> 100,> 100,> 100,> 100,–,–,–,–,–,–,–,–,–,–
Oc1c(I)cc(-c2nc3ccccc3s2)cc1CN(Cc1ccccn1)Cc1ccccn1,2.62,29.8,> 100,43.9,17.4,5.94,53.2,> 100,11.6,2.35,0.347,0.394,0.321,0.43,0.4,0.327,0.928,0.35,0.446,0.272
CC(=O)c1cc2c(c3ccsc13)-c1ccccc1CC2,> 100,> 100,> 100,27.3,54.9,> 100,> 100,> 100,> 100,85.2,35.2,37,6.37,8.95,12.5,30.1,39.4,26.5,34.7,26.6
NC(=S)N/N=C\c1nccc2c(N)cccc12,0.737,> 100,> 100,> 100,> 100,2.04,> 100,3.81,> 39.5,1.24,0.163,0.836,0.803,0.374,0.38,0.303,1.14,0.309,0.314,0.298
CC(C)(C)[Si](C)(C)OCC1C=CC(n2cnc3c(N)ncnc32)O1 (stereo not drawn),> 100,> 54.7,> 100,> 100,> 100,> 100,> 100,> 100,> 100,> 100,–,–,–,–,–,–,–,–,–,–
COC(=O)OCc1ccc2c(c1)C(=O)c1c-2n(CCCBr)c(=O)c2cc([N+](=O)[O-])ccc12,92,> 100,> 100,> 100,> 100,> 100,> 100,> 100,> 100,> 100,31.7,44.9,74.3,61.3,> 100,> 100,> 100,31.7,> 100,> 100
OCC#Cc1ccccc1C#Cc1ccc(C#Cc2ccccc2C#CCO)s1,37.7,33.8,43.1,28.8,30.6,91.5,46.5,29.2,43,36,19.3,16.8,19.9,14.7,15.1,24.7,22.1,15.1,20.1,18.1
COc1ccc(/C=C(/C)[N+](=O)[O-])cc1,2.51,6.91,4.91,3.43,3.32,5.22,9.47,19,4.62,3.15,–,–,–,–,–,–,–,–,–,–
CCOC(=O)N[C@H]1CCc2c(Br)c(OC)c(OC)c(OC)c2-c2ccc(SC)c(=O)cc21,25.1,8.97,> 83.2,1.41,3.79,1.61,25.6,3.79,19.8,15.2,0.0318,0.0115,< 0.0112,< 0.0155,< 0.01,< 0.01,0.0357,< 0.01,< 0.0178,0.131
CN1CCN(c2ccc(NC3=C(Cl)C(=O)c4ncccc4C3=O)cc2C#N)CC1,3.23,5.95,8.72,7.03,25.4,30.9,7.3,28.8,3.25,2.61,1.72,2.25,2.78,2.34,10.8,13,2.75,15,1.55,1.34
CN1CCN(CCNc2ccc(CO)c3sc4ccccc4c(=O)c23)CC1,17.5,16.1,20.7,18.6,16.7,13.1,21.2,17.5,15.4,19.6,–,4.83,7.48,–,–,–,–,–,3.64,–
O=C(O)c1cc(Cc2ccc(O)c(C(=O)O)c2)ccc1O (tested in a mixture with another compound),25.2,16.6,18,3.73,19.1,17.4,27.1,2.9,20.6,19.9,9.64,3.13,4.82,1.9,4.39,3.53,11.5,0.592,6.84,3.99
CC(O)C(O)C(O)C(/C=N\Nc1ccccc1)=N/Nc1ccccc1 (stereo not drawn),29.8,29.4,27.6,23.3,21.6,24.6,27.5,25.7,34.5,25.7,–,–,–,–,–,–,–,–,–,–
COc1ccc(C(=O)COc2cccc(/C=C3\CSc4ccc(Cl)cc4C3=O)c2)cc1,29.8,33.5,52,30,5.57,34.9,34.2,28.7,25.7,25.5,15.6,12.9,15.3,15.5,2.28,16.2,17,11.3,8.16,11.5
